Source: patent US20230158000A1, “PHARMACEUTICAL COMPOSITION FOR TREATING OR PREVENTING VIRAL HEPATITIS AND THE USE THEREOF” (Holy Haid Lab Corp, priority 2020, published 2023)

Legend:
[1] = tested on: HBV DNA of HepG2-NTCP cells; assay: In vitro anti-HBV activity in HepG2-NTCP cells: HBV DNA in culture supernatant by qPCR; assay type: cell-based
Description: (§1) On day 0, HepG2-NTCP cells were plated into 48-well plates (7.5×10^4 cells/well). On day 1, change to medium containing 2% DMSO.
(§2) On day 2, the cells were pretreated by adding compounds for 1 hour, and then HepG2-NTCP cells were infected by the addition of […] (compounds were added simultaneously). The test compound was diluted to three concentrations for single treatment, one concentration for combined treatment. Testing in duplicate. The control compound is ETV. See Table 2 for compound concentrations.
(§3) On days 3, 5 and 7, the medium was replaced with fresh medium containing compounds.
(§4) On the ninth day, the supernatant was collected, which was then detected by ELISA for levels of HBeAg and HbsAg, and by qPCR for level of HBV DNA. Meanwhile, detecting cell viability by CellTiter-Glo. Collecting cells for cryopreservation (for spare).
1) Detecting the level of HBV DNA in cell culture supernatant by qPCR
According to the instructions of QIAamp 96 DNA Blood Kit, extracting DNA from cell culture supernatant. The level of HBV DNA was detected by qPCR with HBV-specific primers. PCR reaction: 95° C., 10 min; 95° C., 15 sec, 60° C., 1 min, 40 cycles.
Inhibition rate of HBV DNA (%)=(1-HBV copy number of sample compound group/HBV copy number of DMSO group)×100%

[2] = tested on: HBsAg of HepG2-NTCP cells; assay: In vitro anti-HBV activity in HepG2-NTCP cells: HBsAg in culture supernatant by ELISA; assay type: cell-based
Description: as §1, §2, §3, §4
(§5) 2) Detecting the levels of HBeAg and HBsAg in cell culture supernatant by ELISA. The test was performed in accordance with the instructions of the kit, and was briefly described as follows:
(§6) Taking respective 50 μl of standard, sample and control compound, and adding to the detection plate, then adding 50 μl of enzyme conjugate to each well, incubating at 37° C. for 60 minutes, washing the plate with washing solution, blotting dry, then adding 50 μl of premixed luminescent substrate, and incubating at room temperature in the dark for 10 minutes, and finally measuring luminescence values by a microplate reader.
(§7) Inhibition rate of Hbe/sAg (%)=(1-HBe/sAg level of sample compound/HBe/sAg level of DMSO control group)×100%

[3] = tested on: HBeAg in HepG2-NTCP cells; assay: microbe, parasite or virus in culture; assay type: cell-based, HBV
Description: as §1, §2, §3, §4, §5, §6, §7

[4] = tested on: HBeAg and HBsAg; settings: as reported in the literature; cited from earlier work
[5] = tested on: hepatitis B virus (HBV); settings: compared with TDF; cited from earlier work
[6] = compared with TDF; cited from earlier work
[7] = tested on: HepG2-NTCP cells; assay: Cell viability assay by CellTiter-Glo; assay type: cell-based; settings: different concentrations, FIG. 7
Description: as §4
3) Cell Viability Assay by CellTiter-Glo Cell
The cell viability was determined according to the instructions of the CellTiter-Glo kit. The assay is briefly described as follows: Collecting the cell culture supernatant, adding CellTiter-Glo (1:1 dilution of medium) to each well, incubating at room temperature for 10 minutes, and measuring luminescence values with a microplate reader.

[8] = tested on: AAV-HBV mouse models; assay: In vivo experiments in AAV-HBV mouse models: plasma HBV DNA, HBsAg, HBeAg; settings: AAV-HBV mice, 60mpk by gavage once a day, 90-day period of administration
Description: Experimental method: AAV-HBV mouse models were administered by gavage, once a day; the compound group (G10 HD042, i.e., celecoxib): the dose of celecoxib was 60mpk; and the blank group (G1 vehicle control group): 10% DMSO+40% PEG400+5% Tween 80+45% Saline (V/V) solution.
During the 90-day period of administration, blood was collected on the 6th, 13th, 20th, 27th, 34th, 41st, 48th, 55th, 62nd, 69th, […], 83rd, and 90th days, respectively, and the plasma levels of HBV DNA, HBsAg, HBeAg and anti-HBs were tested with the results shown in FIGS. 4 to 5.

[9] = Hepatitis B virus, 216 h, read-out: HBsAg inhibition rate
[10] = Hepatitis B virus, 216 h, read-out: HBeAg inhibition rate
[11] = repeated parallel experiments, FIG. 6

C=C1C(CO)C(O)CC1n1cnc2c(=O)nc(N)[nH]c21 [ETV, 2-amino-1,9-dihydro-9-[(1S,3R,4S)-4-hydroxy-3-(hydroxymethyl)-2-methylenecyclopentane]-6H-purin-6-one]
inhibition at 0.0001 µM ([1]; Hepatitis B virus, 216 h, 0.1 nM ETV, HepG2-NTCP cells, supernatant day 9, read-out: HBV DNA inhibition rate): 44.7% | inhibition at 0.0001 µM [2, 9]: 1.22% | inhibition at 0.0001 µM [3, 10]: -1.35% | effect on reducing HBeAg and HBsAg [4]: little effect

CC(C)OC(=O)[C@H](C)N[P@](=O)(CO[C@H](C)Cn1cnc2c(N)ncnc21)Oc1ccccc1 [Tenofovir alafenamide, Tenofovir Alafenamide]
antiviral activity relative to tenofovir disoproxil TDF [5]: 10 times | half-life relative to tenofovir disoproxil TDF [6]: 225 times | stability in plasma relative to tenofovir disoproxil TDF [6]: 200 times

Cc1ccc(-c2cc(C(F)(F)F)nn2-c2ccc(S(N)(=O)=O)cc2)cc1 [compound of formula 1, celecoxib]
inhibition at 1 µM ([1]; Hepatitis B virus, 216 h, 1 μM compound of formula 1, HepG2-NTCP cells, supernatant day 9, read-out: HBV DNA inhibition rate): 7.59% | inhibition at 10 µM ([1]; Hepatitis B virus, 216 h, 10 μM compound of formula 1, HepG2-NTCP cells, supernatant day 9, read-out: HBV DNA inhibition rate): 49.2% | inhibition at 20 µM ([1]; Hepatitis B virus, 216 h, 20 μM compound of formula 1, HepG2-NTCP cells, supernatant day 9, read-out: HBV DNA inhibition rate): 73% | inhibitory effect on HBV DNA, repeated cell experiments [1, 11]: significant dose-dependent manner | inhibition at 1 µM [2, 9]: 21.5% | inhibition at 10 µM [2, 9]: -7.65% | inhibition at 20 µM [2, 9]: 46.1% | inhibitory effect on HBsAg, repeated cell experiments [2, 11]: significant dose-dependent manner | inhibition at 1 µM [3, 10]: 18% | inhibition at 10 µM [3, 10]: 50.4% | inhibition at 20 µM [3, 10]: 78.1% | inhibitory effect on HBeAg, repeated cell experiments [3, 11]: significant dose-dependent manner | cytotoxicity on HepG2-NTCP cells [7]: an effect on the virus rather than cytotoxicity | reduction of plasma level of HBV DNA [8]: 0.72 Log 10 copy/mL | reduction of plasma level of HBeAg [8]: 0.34 Log 10 PEIU/mL | reduction of plasma level of HBsAg [8]: 0.76 Log 10 IU/mL
